From patent US10864296B2, “Polypeptide and hyaluronic acid coatings” (INSTITUT NATIONAL DE LA SANTE ET DE LA RECHERCHE MEDICALE …, priority 2017, dated 2020)
“And” between values parts separate entries of the source, which are not always exact repeats. Equal entries are not always repeated.

Legend:
[1] = tested on: S. aureus; assay: Minimal inhibitory concentration (MIC) of PAR in solution, 24 h in MHB medium with S. aureus; format: cell-based, Staphylococcus aureus; details: for times less active than PAR100 or PAR200 chains (from MICs in solution): per chain; for bacterial growth inhibition in solution: PAR 1 μM
Method: PAR with 10, 30, 100 or 200 arginine residues per chain were tested. Each PAR was incubated 24 h at 37° C. in 300 μL of MHB medium with S. aureus (A620=0.001). Pathogen growth of 0% corresponds to medium with antibiotics (and without PAR) and 100% to medium without PAR. Each value corresponds to the mean value of 3 individual experiments (3 samples per experiment and condition) and error bars correspond to standard deviations. For each concentration, the first column represents the normalized pathogen growth of S. aureus for PAR10, the 2nd column for PAR30, the third column for PAR100 and the fourth for PAR200.
Staphylococcus aureus (S. aureus, ATCC 25923) strains were used to assess the antibacterial properties of the test samples. Bacterial strain was cultured aerobically at 37° C. in a Mueller Hinton Broth (MHB) medium (Merck, Germany), pH 7.4. One colony was transferred to 10 mL of MHB medium and incubated at 37° C. for 20 h, to provide a final density of 10^6 CFU·mL^−1. To obtain bacteria in the mid logarithmic phase of growth, the absorbance at 620 nm of overnight culture was adjusted of 0.001.
In the following the inventors of the present invention wanted to further elucidate the underlying mechanism that confer to the coatings of the invention the strong inhibitory property on the surface and in the supernatant. As an example the (PAR30/HA)24 coating was further investigated. Accordingly, the minimal inhibitory concentration (MIC) of PAR in solution was determined using bacterial assay as described in Experimental Section. […] Finally for PAR at concentrations of 0.01 mg·mL^−1, inhibition of 100% was shown only for PAR30. Longer or shorter PAR chains (PAR10, PAR100 or PAR200) inhibits only partially (less than 40%) S. aureus growth. […] This reasoning is valid when PAR concentration values are expressed in mass (mg·mL^−1) thus it is related to the number of arginine monomers. However when the graph is plotted with concentrations in μM (and thus proportional in number of chains), which means that concentration is related to number of chains, different interpretation can be made (Data not shown). […] Moreover the MIC100 values obtained for PAR30, PAR100 or PAR200 ranges at very low concentrations (between 1 and 2 μM) which is remarkable when compared to well-known antimicrobial peptides (for example 30 μM for cateslytin with S. aureus, see Adv. Funct. Mater. 2013, 23, 4801-4809). PAR is thus a powerful candidate to fight against S. aureus.

[2] = Release of PAR-FITC from (PAR30/HA)24 into the supernatant; format: physicochemical; details: after 24 h, from (PAR30/HA)24 built with PAR-FITC, 37° C.
Method: For the first experiment, a multilayer coating (PAR30/HA)24 was built by using PAR-FITC. Release experiments were performed at 37° C. during 24 h in presence of MHB medium or a S. aureus/MHB solution (A620=0.001). 300 μL of mineral oil were added on the top of the supernatant to prevent any evaporation during the monitoring. The release of PAR-FITC in solution was performed by measuring the fluorescence of the supernatant over time with a spectrofluorimeter (SAFAS Genius XC spectrofluorimeter, Monaco) with excitation/emission wavelength of 488/517 nm. Three samples were studied for each conditions.
In view of the absence of specific properties of PAR30 in solution compared to shorter or longer PAR chains, the antimicrobial abilities of PAR30/HA films should be related to the film property by itself. In this context, the inventors investigated if the bactericidal property of the film is due to the release of PAR30 chains from the multilayer into the solution or if bacteria need to come in contact with the film to be killed. For this purpose two types of experiments were performed. Using fluorescently labelled PAR30 chains we first determined the release of PAR30 chains into the solution containing solely MH medium with and without S. aureus. […] Finally, we also performed an experiment where bacteria were brought in contact with a (PAR30/HA)24 film for 24 hours. […]

[3] = Fluorescence recovery after photobleaching (FRAP) of PAR-FITC in (PAR/HA)24 multilayers; format: physicochemical; details: PAR-FITC in (PAR/HA)24 multilayer, hydrochloride
Method: The diffusion coefficient, D, and the proportion of mobile molecules, p, was measured for (PAR/HA)24 multilayers containing PAR-FITC by performing photobleaching experiments (FRAP, Fluorescence Recovery After Photobleaching).
A glass slide coated with the multilayer was introduced in a home-made sample holder and immerged in 200 μl of Tris-NaCl buffer. One circular regions (4.4 μm in radius and referred as “R4” in an image of 35 μm×35 μm or 10.6 μm in radius and referred as “R10” in an image of 85 μm×85 μm) were exposed for 700 msec to the laser light set at its maximum power (λ=488 nm). Then, the recovery of the fluorescence in the bleached area was observed over time. Observations were carried out with a Zeiss LSM 710 microscope (Heidelberg, Germany) using a 20× objective (Zeiss, Plan Apochromat).
Then the inventors investigated if the bactericidal activity of the PAR30/HA multilayer is related to the mobility of these chains in the films. Indeed, it is known that the exponential character of a multilayer is related to the diffusion ability of at least one of its constituents in and out of the film during each deposition step. They first determined the mobility of the different chains, PAR10, PAR30, PAR100 and PAR200 in the (PAR/HA)24 multilayer by using FRAP method. […] Recovery of fluorescence appears very fast for PAR10 and PAR30 compare to PAR100 or PAR200. From these curves we can deduce the percentage of mobile chains over the timescale of the experiments. It clearly appears that PAR10 and PAR30 chains are more mobile (between 85 to 90% of mobile fraction) than the PAR100 (only 63% of mobile fraction). The largest chains PAR200 correspond to the slowest with about 12% of the population which is mobile (FIG. 8). Accordingly, the fraction of mobile chains dramatically decreases when the chain length increases from 30 to 100 or 200 residues.

[4] = tested on: S. aureus; details: Adv. Funct. Mater. 2013, 23, 4801-4809; cited from earlier work
[5] = PAR concentrations up to 0.04 mg·mL^−1

In the case of poly(I-arginine hydrochloride) [PAR30], the “S. aureus growth inhibition in solution” value ([1]; PAR 0.01 mg·mL^−1, hydrochloride) is reported as 100%, the “S. aureus growth inhibition in solution (in words)” value ([1]; PAR 0.02 mg·mL^−1) is reported as “quasi total inhibition” and the “S. aureus growth inhibition in solution (in words)” value [1, 5] is reported as “totally inhibited”. For the same substance, the MIC90 ([1]; in solution, S. aureus) was “about 2 μM”, the “concentration needed for a similar effect (about 90% inhibition)” value ([1]; in solution, S. aureus) was “about 10 μM” and the “times less active than PAR100 or PAR200 chains (from MICs in solution)” value ([1]; hydrochloride) was 2 times. The “PAR30 released into solution” value [2] was “about 0.18 μM”.

In the case of poly(I-arginine hydrochloride) [PAR100], the “bacterial growth inhibition in solution” value [1] is reported as “about 90%”, the “S. aureus growth inhibition in solution (in words)” value ([1]; PAR 0.02 mg·mL^−1) is reported as “quasi total inhibition” and the “S. aureus growth inhibition in solution (in words)” value [1, 5] is reported as “totally inhibited”. For the same substance, the “proportion of mobile PAR chains (mobile fraction)” value (from here on “proportion … (mobile fraction)”) [3] was 63% and 70%.

For cateslytin, the “MIC of a well-known antimicrobial peptide, compared with MIC100 of PAR” value [4] is given as 30 µM.

With poly(I-arginine hydrochloride) [PAR200] the “bacterial growth inhibition in solution” value [1] was “about 90%”, the “S. aureus growth inhibition in solution” value ([1]; PAR 0.02 mg·mL^−1) was “about 45%” and the “S. aureus growth inhibition in solution (in words)” value [1, 5] was “totally inhibited”. The “proportion … (mobile fraction)” value [3] was “about 12%”.

With poly(I-arginine hydrochloride) [PAR10] the “S. aureus growth inhibition in solution (in words)” value ([1]; PAR 0.02 mg·mL^−1) was “quasi total inhibition”, the “S. aureus growth inhibition in solution (in words)” value [1, 5] was “totally inhibited” and the “concentration needed for a similar effect (about 90% inhibition)” value ([1]; in solution, S. aureus) was “about 10 μM”. For the same substance, the “times less active than PAR100 or PAR200 chains (from MICs in solution)” value ([1]; hydrochloride) was 10 times and the “proportion … (mobile fraction)” value [3] was ~90%.
